Experiments:
Assay in all cases: relative viability (nuclei count vs DMSO), 5 days (fraction); higher = more cells survive
ABC-1 = test system: ABC-1
Summary of the method: (§1)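 Lung cancer cell lines were seeded in 1536-well plates and dosed by pin tool the next day, with either a single drug or a fixed anchor-drug dose combined with five library-drug doses (not always all listed) spaced in √10 steps. Five days later, one step fixed the cells and stained their nuclei (final 0.05% Triton X-100, 1% formaldehyde, 1 ug/ml Hoechst), and nuclei were counted on 4× images. Relative viability is the nuclei count in treated wells divided by the count in vehicle wells, and each value is the median of duplicate plates.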

COR-L23 = test system: COR-L23
Summary of the method: as §1

EPLC-272H = test system: EPLC-272H
Summary of the method: as §1

HARA = test system: HARA
Summary of the method: as §1

HCC-15 = test system: HCC-15
Summary of the method: as §1

HCC-78 = test system: HCC-78
Summary of the method: as §1

LC-2-ad = test system: LC-2-ad
Summary of the method: as §1

LU99A = test system: LU99A
Summary of the method: as §1

NCI-H1651 = test system: NCI-H1651
Summary of the method: as §1

NCI-H1915 = test system: NCI-H1915
Summary of the method: as §1

NCI-H1993 = test system: NCI-H1993
Summary of the method: as §1

NCI-H2009 = test system: NCI-H2009
Summary of the method: as §1

NCI-H2085 = test system: NCI-H2085
Summary of the method: as §1

NCI-H2126 = test system: NCI-H2126
Summary of the method: as §1

NCI-H2342 = test system: NCI-H2342
Summary of the method: as §1

NCI-H2347 = test system: NCI-H2347
Summary of the method: as §1

NCI-H358 = test system: NCI-H358
Summary of the method: as §1

NCI-H460 = test system: NCI-H460
Summary of the method: as §1

NCI-H522 = test system: NCI-H522
Summary of the method: as §1

NCI-H650 = test system: NCI-H650
Summary of the method: as §1

NCI-H838 = test system: NCI-H838
Summary of the method: as §1

PC-14 = test system: PC-14
Summary of the method: as §1

SW 1573 = test system: SW 1573
Summary of the method: as §1

UMC-11 = test system: UMC-11
Summary of the method: as §1

CC(C)Oc1cc(Nc2nc(N[C@@H](C)c3ccc(F)cn3)ncc2Cl)n[nH]1 [AZ23] + COc1cccc2cc(-c3nc([C@H]4CC[C@H](C(=O)O)CC4)n4ncnc(N)c34)[nH]c12 [OSI-027] (partner 0.5 µM)
relative viability (ABC-1; first compound 0.01 µM): 0.398 | relative viability (ABC-1; first compound 0.03162 µM): 0.408 | relative viability (ABC-1; first compound 0.3162 µM): 0.469 | relative viability (COR-L23; first compound 0.01 µM): 0.758 | relative viability (COR-L23; first compound 0.03162 µM): 0.868 | relative viability (COR-L23; first compound 0.3162 µM): 0.822 | relative viability (EPLC-272H; first compound 0.01 µM): 0.238 | relative viability (EPLC-272H; first compound 0.03162 µM): 0.275 | relative viability (EPLC-272H; first compound 0.3162 µM): 0.256 | relative viability (HARA; first compound 0.03162 µM): 0.686 | relative viability (HARA; first compound 0.3162 µM): 0.415 | relative viability (HCC-15; first compound 0.01 µM): 0.687 | relative viability (HCC-15; first compound 0.03162 µM): 0.665 | relative viability (HCC-15; first compound 0.3162 µM): 0.684 | relative viability (HCC-78; first compound 0.01 µM): 0.52 | relative viability (HCC-78; first compound 0.03162 µM): 0.349 | relative viability (HCC-78; first compound 0.3162 µM): 0.322 | relative viability (LC-2-ad; first compound 0.01 µM): 0.953 | relative viability (LC-2-ad; first compound 0.03162 µM): 0.802 | relative viability (LC-2-ad; first compound 0.3162 µM): 0.672 | relative viability (LU99A; first compound 0.01 µM): 0.264 | relative viability (LU99A; first compound 0.03162 µM): 0.312 | relative viability (LU99A; first compound 0.3162 µM): 0.286 | relative viability (NCI-H1651; first compound 0.03162 µM): 0.77 | relative viability (NCI-H1651; first compound 0.3162 µM): 0.881 | relative viability (NCI-H1915; first compound 0.01 µM): 0.664 | relative viability (NCI-H1915; first compound 0.03162 µM): 0.635 | relative viability (NCI-H1915; first compound 0.3162 µM): 0.65 | relative viability (NCI-H1993; first compound 0.01 µM): 0.581 | relative viability (NCI-H1993; first compound 0.03162 µM): 0.559 | relative viability (NCI-H1993; first compound 0.3162 µM): 0.529 | relative viability (NCI-H2009; first compound 0.01 µM): 0.651 | relative viability (NCI-H2009; first compound 0.03162 µM): 0.706 | relative viability (NCI-H2009; first compound 0.3162 µM): 0.765 | relative viability (NCI-H2085; first compound 0.01 µM): 0.676 | relative viability (NCI-H2085; first compound 0.03162 µM): 0.76 | relative viability (NCI-H2085; first compound 0.3162 µM): 0.659 | relative viability (NCI-H2126; first compound 0.01 µM): 0.692 | relative viability (NCI-H2126; first compound 0.03162 µM): 0.735 | relative viability (NCI-H2126; first compound 0.3162 µM): 0.756 | relative viability (NCI-H2342; first compound 0.01 µM): 0.702 | relative viability (NCI-H2342; first compound 0.03162 µM): 0.593 | relative viability (NCI-H2342; first compound 0.3162 µM): 0.569 | relative viability (NCI-H2347; first compound 0.01 µM): 0.298 | relative viability (NCI-H2347; first compound 0.03162 µM): 0.262 | relative viability (NCI-H2347; first compound 0.3162 µM): 0.389 | relative viability (NCI-H358; first compound 0.01 µM): 0.682 | relative viability (NCI-H358; first compound 0.03162 µM): 0.725 | relative viability (NCI-H358; first compound 0.3162 µM): 0.805 | relative viability (NCI-H460; first compound 0.01 µM): 0.382 | relative viability (NCI-H460; first compound 0.03162 µM): 0.657 | relative viability (NCI-H460; first compound 0.3162 µM): 0.885 | relative viability (NCI-H522; first compound 0.01 µM): 0.639 | relative viability (NCI-H522; first compound 0.03162 µM): 0.711 | relative viability (NCI-H522; first compound 0.3162 µM): 0.563 | relative viability (NCI-H650; first compound 0.01 µM): 0.463 | relative viability (NCI-H650; first compound 0.03162 µM): 0.564 | relative viability (NCI-H650; first compound 0.3162 µM): 0.579 | relative viability (NCI-H838; first compound 0.01 µM): 0.437 | relative viability (NCI-H838; first compound 0.03162 µM): 0.402 | relative viability (NCI-H838; first compound 0.3162 µM): 0.424 | relative viability (PC-14; first compound 0.03162 µM): 1.01 | relative viability (PC-14; first compound 0.3162 µM): 1.24 | relative viability (SW 1573; first compound 0.01 µM): 0.925 | relative viability (SW 1573; first compound 0.03162 µM): 0.7 | relative viability (SW 1573; first compound 0.3162 µM): 0.649 | relative viability (UMC-11; first compound 0.01 µM): 0.429 | relative viability (UMC-11; first compound 0.03162 µM): 0.505 | relative viability (UMC-11; first compound 0.3162 µM): 0.494
